Results published in ChEMBL document CHEMBL5329192, “Synthesis, biological activities, and future perspectives of steroidal monocyclic pyridines” (RSC Med Chem, 2023).

Key:
ECa-109 cell line = assay: Cytotoxicity against human Eca-109 cells assessed as reduction in cell viability incubated for 72 hrs by MTT assay; type: functional, cell-based; settings: ECa-109, 72 h
MGC-803 = assay: Cytotoxicity against human MGC-803 cells assessed as reduction in cell viability incubated for 72 hrs by MTT assay; type: functional, cell-based; settings: MGC-803, 72 h
PC-3 = assay: Cytotoxicity against human PC-3 cells assessed as reduction in cell viability incubated for 72 hrs by MTT assay; type: functional, cell-based; settings: PC-3, 72 h
MCF7 [1] = assay: Cytotoxicity against human MCF7 cells assessed as reduction in cell viability incubated for 72 hrs by MTT assay; type: functional, cell-based; settings: MCF7, 72 h
A549 = assay: Cytotoxicity against human A549 cells assessed as reduction in cell viability incubated for 72 hrs by MTT assay; type: functional, cell-based; settings: A549, 72 h
HeLa [2] = assay: Antiproliferative activity against human HeLa cells assessed as reduction in cell viability by MTT assay; type: functional, cell-based
[3] = Antiproliferative activity against human […] cells assessed as reduction in cell viability by MTT assay; type: functional, cell-based
MCF7 [4] = assay: Antiproliferative activity against human MCF7 cells assessed as reduction in cell growth incubated for 48 hrs by MTT assay; type: functional, cell-based; settings: MCF7, 48 h
SK-OV-3 = assay: Antiproliferative activity against human SK-OV-3 cells assessed as reduction in cell growth incubated for 48 hrs by MTT assay; type: functional, cell-based; settings: SK-OV-3, 48 h
HeLa [5] = assay: Antiproliferative activity against human HeLa cells assessed as reduction in cell growth incubated for 48 hrs by MTT assay; type: functional, cell-based
HepG2 = assay: Antiproliferative activity against human HepG2 cells assessed as reduction in cell growth incubated for 48 hrs by MTT assay; type: functional, cell-based; settings: HepG2, 48 h
[6] = Acute toxicity in ip dosed albino rat administered twice daily for 14 days; type: organism-based; settings: in vivo, time 14 day
Rattus norvegicus [7] = assay: Anti-androgen activity against albino rat assessed as mass gain of prostate gland at 0.1 mg/kg, sc administered for 7 days; type: functional; settings: time 7 day
Rattus norvegicus [8] = assay: Anti-anabolic activity against albino rat assessed as mass gain of levator ani-muscle at 0.1 mg/kg, sc administered for 7 days; type: functional; settings: time 7 day
Rattus norvegicus [9] = organism: Rattus norvegicus; assay: Ratio of anti-anabolic activity against albino rat assessed as reduction in mass of levator ani-muscle to anti-androgenic activity against albino rat assessed as mass gain of prostate gland; type: functional
[10] = Cytotoxicity against human HEp-2 cells assessed as reduction in cell viability incubated for 48 hrs by MTT assay; type: toxicity, cell-based

Structure (SMILES)	IC50 (ECa-109 cell line) [µM]	IC50 (MGC-803) [µM]	IC50 (PC-3) [µM]	IC50 (MCF7 [1]) [µM]	IC50 (A549) [µM]	also measured
C[C@]12CC[C@H]3[C@@H](CC=C4C[C@@H](O)CC[C@@]43C)[C@@H]1CC[C@@H]2c1cc(-c2ccnc(Br)c2)c(C#N)c(N)n1	22.3	19.7	7	> 64	43.6	
C[C@]12CC[C@H]3[C@@H](CC=C4C[C@@H](O)CC[C@@]43C)[C@@H]1CC[C@@H]2c1cc(-c2cccc(Cl)c2)c(C#N)c(N)n1	> 64	> 64	9.7	29	30.3	
CC(=O)O[C@H]1CC[C@@]2(C)C(=CC[C@@H]3[C@@H]2CC[C@]2(C)c4cc(-c5ccccc5)ncc4C[C@@H]32)C1						IC50 (HeLa [2]): ≥ 100 µM; IC50 [3]: ≥ 100 µM
C[C@]12CC[C@H]3[C@@H](CC=C4C[C@@H](O)CC[C@@]43C)[C@@H]1CC[C@@H]2c1cc(-c2ccccc2Cl)c(C#N)c(N)n1	30.1	8.4	3.7	18.8	33.3	
C[C@]12CC[C@H]3[C@@H](CC=C4C[C@@H](O)CC[C@@]43C)[C@@H]1CC[C@@H]2c1cc(-c2ccccc2)c(C#N)c(N)n1	> 64	10.9	3.2	16	43.2	IC50 (MCF7 [4]): 15.5 µM; IC50 (SK-OV-3): 13.1 µM; IC50 (HeLa [5]): 14.6 µM; IC50 (HepG2): 23.8 µM
COc1cccc(-c2cc([C@H]3CC[C@H]4[C@@H]5CC=C6C[C@@H](O)CC[C@]6(C)[C@H]5CC[C@]34C)nc(N)c2C#N)c1	> 64	> 64	7.5	27.4	> 64	
CCOc1nc(-c2ccc(F)cc2)c2c(c1C#N)[C@@]1(C)CC[C@H]3[C@@H](CC[C@H]4C[C@@H](O)CC[C@@]43C)[C@@H]1C2						LD50 at 336 h [6]: 4890 mg/kg; Activity (Rattus norvegicus [7]): 0.123 g; Activity (Rattus norvegicus [8]): 0.191 g; Ratio (Rattus norvegicus [9]): 1.55
CC(=O)O[C@H]1CC[C@@]2(C)C(=CC[C@H]3[C@@H]4CC[C@H](c5cc(-c6c(F)cccc6F)c(C#N)c(N)n5)[C@@]4(C)CC[C@@H]32)C1						CC50 at 48 h [10]: 374 µM
CCOC(=O)c1cc2c(cn1)C[C@H]1[C@@H]3CC=C4C[C@@H](OC(C)=O)CC[C@]4(C)[C@H]3CC[C@]21C						IC50 (HeLa [2]): ≥ 100 µM; IC50 [3]: ≥ 100 µM
C[C@]12CC[C@H]3[C@@H](CC=C4C[C@@H](O)CC[C@@]43C)[C@@H]1CC[C@@H]2c1cc(-c2c(F)cccc2F)c(C#N)c(N)n1	> 64	8.8	2	11.6	17.3	
C[C@]12CC[C@H](O)C[C@@H]1CC[C@@H]1[C@@H]2CC[C@]2(C)c3c(c(-c4ccc(Cl)cc4)[nH]c(=O)c3C#N)C[C@@H]12						LD50 at 336 h [6]: 4920 mg/kg; Activity (Rattus norvegicus [7]): 0.234 g; Activity (Rattus norvegicus [8]): 0.314 g; Ratio (Rattus norvegicus [9]): 1.34
COc1ccc(-c2cc([C@H]3CC[C@H]4[C@@H]5CC=C6C[C@@H](O)CC[C@]6(C)[C@H]5CC[C@]34C)nc(N)c2C#N)cc1	> 64	57.8	5.7	51.1	> 64	IC50 (MCF7 [4]): 101 µM; IC50 (SK-OV-3): 32.5 µM; IC50 (HeLa [5]): 40.3 µM; IC50 (HepG2): 34.8 µM
C[C@]12CC[C@H]3[C@@H](CC=C4C[C@@H](O)CC[C@@]43C)[C@@H]1CC[C@@H]2c1cc(-c2ccc(F)c(Br)c2)c(C#N)c(N)n1	> 64	> 64	5.9	37.3	56.2	
COc1cccc2c1C(=O)c1c(O)c3c(c(O)c1C2=O)C[C@@](O)(C(=O)CO)C[C@@H]3O[C@H]1C[C@H](N)[C@H](O)[C@H](C)O1 [DOXORUBICIN]						IC50 [3]: 9 µM
C[C@]12CCC(=O)C[C@@H]1CC[C@@H]1[C@@H]2CC[C@]2(C)[C@@H](O)CC[C@@H]12 [STANOLONE]						LD50 at 336 h [6]: 3410 mg/kg; Activity (Rattus norvegicus [7]): 0.2 g; Activity (Rattus norvegicus [8]): 0.18 g
CC(=O)O[C@H]1CC[C@@]2(C)C(=CC[C@@H]3[C@@H]2CC[C@]2(C)c4cc(-c5ccc(C)cc5)ncc4C[C@@H]32)C1						IC50 (HeLa [2]): ≥ 100 µM; IC50 [3]: ≥ 100 µM
C[C@]12CC[C@H](O)C[C@@H]1CC[C@@H]1[C@@H]2CC[C@]2(C)c3c(c(-c4ccccc4)[nH]c(=O)c3C#N)C[C@@H]12						LD50 at 336 h [6]: 4920 mg/kg; Activity (Rattus norvegicus [7]): 0.234 g; Ratio (Rattus norvegicus [9]): 11.3
